Test [1] concerns the target T1, mGluR7 (Mus musculus, UniProt Q68ED2). Briefly: Whole brain slice luminescence, Gi agonist with isoproterenol. It is filed as cell-based. The settings on record: line 187, 1 uM AMN082 in combination with 1 uM ISO. On the set-up: from tissue; host or cells: hippocampal brain slices, CreLuc mouse line 187. As to the method:
Whole brain slices were used to show the effects of compounds on luminescence in CreLuc mice (FIG. 8A, 8B). In general, brains from CreLuc mice can be harvested and then either cut into slices on a microtome or various subregions can also be dissected out and then sliced on a microtome. The slices can then be incubated with different compounds such as forskolin and rolipram, or GPCR specific compounds. Luciferase levels can then be measured with an IVIS bioimager or a photomultiplier with a carousel to take quantitative timecourse measurements.
Brain slices from the hippocampal region of CreLuc mice (line #187) were incubated with 1 uM isoproterenol (Sigma, cat#5627) for 2 days. […] (FIG. 8A, bottom panel). Thus, isoproterenol was used to increase the luciferase signal window which allows for screening GPCR specific compounds such as Gi agonists. AMN082 (AMN, Tocris Bioscience, Cat. No. 2385) is an mGluR7 agonist and mGluR7 is a receptor that is coupled to Gi. When brain slices were treated with 1 uM ISO in combination with 1 uM AMN082, the luciferase signal was diminished in comparison to ISO treatment alone.

The target of test [2] is T1, mGluR7. Nature of the test: Primary cortical neurons CreLuc luciferase assay, Gi modulation via mGluR7. It counts as cell-based. On the set-up: endogenous in cells; host or cells: primary cortical neurons, E18 embryos, CreLuc mouse line 187. The text has this: (§1) A general schematic of the workflow for the isolation and compound treatment of primary neuronal cells from the CreLuc model is depicted in FIG. 9. Cortices or other brain subregions are removed from embryos, usually embryonic (E) day 17 or 18, but also as early as E14. The individual neurons are then isolated and plated onto 96 well assay plates. Assays are run either in triplicate or quadruplicate. The assays are run from day 3 in culture up until day 7 or day 10 in culture depending on the expression levels of the target GPCR. Compounds are added to the plates then at a set timepoint, Bright Glo (Promega, Cat #E2610) is added to the plates and the assay is then run on a TopCount or other luminometer.
Primary cell cultures from the CreLuc mice may be used to screen compounds that are capable of modulating Gi coupled receptors. […] Cortical neurons were harvested from E18 embryos. The assay was run at day 3 in culture. Forskolin was used at 10 μM to give a larger signal window to be used to detect Gi activity. The mGluR7 agonist, AMN082 was used in combination with forskolin at 1 nM, 10 nM, 100 nM and 1 μM. The assay was read on a TopCount with Bright Glo (Promega) at 4 hours, and 8 hours. […] The CreLuc mice can be used to screen for compounds that modulate Gq coupled receptors.
However, to increase the signal window even wider, rolipram (blocks the breakdown of cAMP) was used in combination with forskolin. Primary cortical neurons were isolated from E18 embryos from line 187 which was previously determined to have inducible brain and spinal cord expression. The assay, in triplicates, was run at day 7 in culture for 6 hours. A dose curve, 10 μM down to 1 nM, for AMN082 was run in combination with 50 μM forskolin and 10 μM rolipram. The assay was read on a TopCount luminometer with Bright Glo substrate (Promega). […] All lines used were previously determined to have inducible luciferase expression levels in whole brain tissue extracts (data not shown). […] Bright Glo luciferase assay substrate was then added, and the assay read on a Topcount luminometer. […]

For test [3], the target named is T2, adrenoceptor beta3 (Adrb3) (Mus musculus, UniProt P25962).
T2 construct: from tissue; host or cells: whole animal; luciferase read in tissue homogenates (adipose tissue, lung and others) and by bioimaging
T2 sequence (P25962 whole entry): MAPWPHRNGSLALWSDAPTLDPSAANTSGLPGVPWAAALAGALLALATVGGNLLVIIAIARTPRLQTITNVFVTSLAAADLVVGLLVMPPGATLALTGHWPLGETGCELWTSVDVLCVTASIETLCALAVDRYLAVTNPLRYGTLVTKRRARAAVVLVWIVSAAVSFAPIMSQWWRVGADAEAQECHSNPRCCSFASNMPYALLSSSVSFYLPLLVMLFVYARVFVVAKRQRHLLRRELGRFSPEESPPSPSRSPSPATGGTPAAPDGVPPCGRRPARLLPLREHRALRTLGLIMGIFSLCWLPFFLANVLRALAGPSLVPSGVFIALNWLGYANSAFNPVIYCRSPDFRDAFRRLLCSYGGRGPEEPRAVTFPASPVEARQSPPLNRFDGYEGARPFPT
Nature of the test: Induction of luciferase by Adrb3 agonist in CRE-Luc mice (tissue homogenates, bioimaging). It counts as in vivo. The settings on record: 1 mg/kg, ip. As to the method:
The luciferase assay was performed in tissue homogenates.

A further test has as its target T3, CB1 (Mus musculus, UniProt P47746).
T3 construct: endogenous in cells; host or cells: primary cortical neurons, E18, CreLuc mouse lines 69, 187, 175, 219
Nature of the test: Primary cortical neurons CreLuc luciferase assay, Gi modulation by CB1 agonist. It is filed as cell-based. The protocol:
However, to increase the signal window even wider, rolipram (blocks the breakdown of cAMP) was used in combination with forskolin. Primary cortical neurons were isolated from E18 embryos from line 187 which was previously determined to have inducible brain and spinal cord expression. The assay, in triplicates, was run at day 7 in culture for 6 hours. A dose curve, 10 μM down to 1 nM, for AMN082 was run in combination with 50 μM forskolin and 10 μM rolipram. The assay was read on a TopCount luminometer with Bright Glo substrate (Promega). […] Gi modulation of luciferase expression in primary cortical neurons from different CreLuc lines by the CB1 agonist, CP 55,940 was performed in the presence of forskolin and rolipram (FIG. 15). Primary cortical neurons were harvested from lines 69, 187, 175 and 219 at E18. All lines used were previously determined to have inducible luciferase expression levels in whole brain tissue extracts (data not shown). The assays were run on day three in culture. The CB1 agonist was used at 10 μM, forskolin at 5 μM and rolipram at 10 μM. […] Bright Glo luciferase assay substrate was then added, and the assay read on a Topcount luminometer. […]
Gi modulation of luciferase in primary cortical neurons from CreLuc mice by the CB1 agonist, CP 55,940 was in a dose-dependent manner (FIG. 15B). […] The assay was read on a TopCount with BrightGlo (Promega) at 8 hours.

In the next test the test system is plasma cAMP. The settings on record: Balb/c mice, 10 mg/kg, blood harvested after 20 minutes; cited from earlier work.
The target of test [4] is T4, D1 dopamine receptors (DRD1) (Mus musculus, UniProt Q61616).
T4 construct: Neurons were isolated from the cortices of line 187 E18 embryos; endogenous in cells; host or cells: primary cortical neurons (E18) and striatal neurons (E14), CreLuc mouse line 187
T4 sequence (Q61616 whole entry): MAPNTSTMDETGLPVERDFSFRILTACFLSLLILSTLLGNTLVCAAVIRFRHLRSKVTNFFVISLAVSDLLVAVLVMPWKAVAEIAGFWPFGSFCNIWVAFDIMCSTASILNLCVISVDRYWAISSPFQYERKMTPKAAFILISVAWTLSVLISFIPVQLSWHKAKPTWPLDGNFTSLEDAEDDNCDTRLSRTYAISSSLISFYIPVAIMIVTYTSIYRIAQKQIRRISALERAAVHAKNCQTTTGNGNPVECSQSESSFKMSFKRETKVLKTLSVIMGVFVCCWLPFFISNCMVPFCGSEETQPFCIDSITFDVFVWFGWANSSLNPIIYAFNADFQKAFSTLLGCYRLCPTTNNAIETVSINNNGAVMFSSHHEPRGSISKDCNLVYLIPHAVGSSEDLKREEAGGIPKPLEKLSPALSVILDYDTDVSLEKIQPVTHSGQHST
Briefly: Primary cortical neurons CreLuc luciferase assay, Gs modulation via DRD1. The note with it: 4 hours. It is filed as cell-based.
Description: as §1
The assay was run in triplicates on day three in culture. Forskolin was used at 5 μM, rolipram at 10 μM and the Gs agonists, ADβR-isoproterenol; and Dopamine-SKF82958 (MFG, Cat #C130) at 10 μM. At 4 hours, Bright Glo was added and the assays run on a Topcount. Forskolin is a general activator of cAMP.

Test [5] has as its target T5, glucagon-like peptide 1 receptor (GLP-1R) (Mus musculus, UniProt O35659).
T5 construct: from tissue; host or cells: whole animal; bioimaging and tissue homogenates, signal in the pancreas
T5 sequence (O35659 22-463): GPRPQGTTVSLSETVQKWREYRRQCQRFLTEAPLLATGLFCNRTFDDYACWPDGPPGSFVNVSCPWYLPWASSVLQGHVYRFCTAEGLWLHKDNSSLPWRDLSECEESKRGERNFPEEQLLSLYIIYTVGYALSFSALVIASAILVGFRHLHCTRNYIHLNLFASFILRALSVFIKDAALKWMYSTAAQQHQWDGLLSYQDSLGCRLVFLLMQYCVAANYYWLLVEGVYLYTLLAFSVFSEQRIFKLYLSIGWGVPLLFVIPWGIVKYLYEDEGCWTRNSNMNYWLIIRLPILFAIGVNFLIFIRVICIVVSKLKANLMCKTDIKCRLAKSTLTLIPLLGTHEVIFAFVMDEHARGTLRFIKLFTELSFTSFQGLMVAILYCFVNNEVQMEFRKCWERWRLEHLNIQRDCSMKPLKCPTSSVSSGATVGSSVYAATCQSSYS
Nature of the test: Induction of luciferase reporter by GLP-1R agonist in CRE-Luc mice (bioimaging, tissue homogenates). It counts as in vivo. As to the method:
Transgene activation co-localizes with tissue specific receptor activation as exemplified by the induction of luciferase reporter by the glucagon-like peptide 1 receptor (GLP-1R) agonist, AVE0010, which was studied in three independent lines of CRE-Luc mice (FIG. 28). The GLP-1R is Gs coupled. Baseline images were acquired on day 1. On day 2, mice were treated with AVE0010 (0.1 mg/kg, sc) and imaged after 4 hours. Folds of induction over baseline were indicated at the bottom. […] Luciferase activities in 8 different tissues were measured for lines 11, 16 and 90 (FIG. 29) following treatment with AVE0010 (0.1 mg/kg, s.c.) for 4 hours. […] The activity of AVE0010 is limited to the pancreas even though GLP-1R is found in different tissue types.
The induction of Cre-Luc by AVE0010 is likely beta-cell mediated. The effects of the beta-cell toxin streptozotocin (STZ) on the induction of CRE-Luc by AVE0010 was investigated (FIG. 30). Male CRE-luc mice were imaged before and after AVE0010 (0.1 mg/kg, sc) treatment. […] Then, the animals were treated with vehicle or STZ (200 mpk, ip). Four days later, they were imaged again after AVE0010 treatment.
A general note: A reporter such as luciferase makes a cellular process visible.

The nature of test [6]: Blood glucose in unfasted CRE-luc mice. It counts as in vivo, mouse. The note with it: line 11, AVE0010 0.1 mg/kg, sc. The protocol: The induction of CRE-Luc by AVE0010 is likely beta-cell-specific (FIG. 31). Animals were treated as described in FIG. 30. Blood glucose levels were measured by tail vein nicking on unfasted mice. Glucose levels were read on a Bayer glucometer. Glucose levels are shown as mg glucose/[…]. Fold induction is the luciferase bioimaging levels of AVE10 dosing versus the baseline signals. Blood glucose levels (BG) were increased by STZ (upper left panel). Non-fasting BG levels were reduced by AVE0010 (0.1 mg/kg, sc).

T1 sequence (Q68ED2 35-915): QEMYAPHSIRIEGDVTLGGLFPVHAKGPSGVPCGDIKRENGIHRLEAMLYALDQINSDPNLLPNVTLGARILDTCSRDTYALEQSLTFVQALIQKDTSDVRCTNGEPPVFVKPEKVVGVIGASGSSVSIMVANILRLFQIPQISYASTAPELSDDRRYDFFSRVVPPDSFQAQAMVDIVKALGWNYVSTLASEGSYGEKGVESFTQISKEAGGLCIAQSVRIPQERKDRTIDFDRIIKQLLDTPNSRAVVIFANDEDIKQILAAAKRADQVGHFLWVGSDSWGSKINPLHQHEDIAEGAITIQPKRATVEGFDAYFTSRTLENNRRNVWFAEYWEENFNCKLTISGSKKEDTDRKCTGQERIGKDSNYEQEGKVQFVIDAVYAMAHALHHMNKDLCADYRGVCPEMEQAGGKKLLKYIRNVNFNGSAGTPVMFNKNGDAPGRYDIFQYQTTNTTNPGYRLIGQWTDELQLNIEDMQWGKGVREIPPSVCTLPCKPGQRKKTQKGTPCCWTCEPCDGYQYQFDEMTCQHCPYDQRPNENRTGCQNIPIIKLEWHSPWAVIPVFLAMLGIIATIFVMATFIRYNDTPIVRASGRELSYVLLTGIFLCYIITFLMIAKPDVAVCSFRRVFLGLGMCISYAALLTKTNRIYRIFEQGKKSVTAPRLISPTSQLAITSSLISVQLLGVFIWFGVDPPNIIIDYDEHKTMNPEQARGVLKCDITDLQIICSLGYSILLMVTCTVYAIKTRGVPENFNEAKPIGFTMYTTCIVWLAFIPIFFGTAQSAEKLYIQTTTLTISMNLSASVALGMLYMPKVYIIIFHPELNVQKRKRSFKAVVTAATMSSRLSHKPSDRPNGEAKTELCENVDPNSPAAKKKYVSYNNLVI
T3 sequence (P47746 whole entry): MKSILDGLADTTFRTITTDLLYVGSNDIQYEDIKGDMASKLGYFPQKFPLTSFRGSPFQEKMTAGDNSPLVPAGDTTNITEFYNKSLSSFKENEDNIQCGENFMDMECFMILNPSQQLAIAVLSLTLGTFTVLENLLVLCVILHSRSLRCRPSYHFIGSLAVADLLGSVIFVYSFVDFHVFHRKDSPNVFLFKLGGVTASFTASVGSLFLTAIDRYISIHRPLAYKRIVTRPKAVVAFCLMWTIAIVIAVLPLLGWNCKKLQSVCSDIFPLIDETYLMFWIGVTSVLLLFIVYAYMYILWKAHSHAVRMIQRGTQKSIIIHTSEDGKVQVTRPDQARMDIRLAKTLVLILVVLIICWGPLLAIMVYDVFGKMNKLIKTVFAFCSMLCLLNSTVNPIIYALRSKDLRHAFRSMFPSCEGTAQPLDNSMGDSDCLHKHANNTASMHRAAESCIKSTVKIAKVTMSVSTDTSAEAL

As a reminder, the EC50 is the concentration that produces a half-maximal response. Turning to `Cl.Cl.c1ccc(C(NCCNC(c2ccccc2)c2ccccc2)c2ccccc2)cc1` [AMN082], the “luciferase signal in brain slices in comparison to ISO treatment alone” value on mGluR7 [1] is recorded as “diminished”. For the same compound, the “luciferase levels versus forskolin only” value at mGluR7 [2] (cortical neurons line 187, day 3, 10 μM forskolin, 100 nM and 1 μM AMN082, 4 hours and 8 hours) is “Significant decreases”. For the same compound, the EC50 at mGluR7 [2] (cortical neurons line 187, day 3, in combination with 10 μM forskolin, 4 hours, read-out: calculated EC50 (Gi modulation of luciferase)) was 174 nM. For the same compound, the “decreases in luciferase levels vs. forskolin and rolipram controls” value at mGluR7 [2] (cortical neurons line 187, day 7, 6 hours, 50 μM forskolin and 10 μM rolipram, at 1 μM, 100 nM and 1 nM, p<0.0005) is given as 59-61%.

Turning to `C[C@H](Cc1ccc2c(c1)OC(C(=O)[O-])(C(=O)[O-])O2)NC[C@H](O)c1cccc(Cl)c1.[Na+].[Na+]` [CL316,243], the induction via bioimaging entry in test [3] (4 lines, BLI 4-5 hours after treatment) is given as “visible induction”. In addition, in test [3] (7 of 12 independent transgenic lines screened), the “induction of luciferase in the adipose tissue and lung (tissue homogenates)” value is reported as “greater than 10 fold”.

With `CCCCCCC(C)(C)c1ccc([C@@H]2C[C@H](O)CC[C@H]2CCCO)c(O)c1` [CP 55,940], the “luciferase levels, agonist plus forskolin and rolipram versus forskolin and rolipram alone” value on CB1 (cortical neurons line 187, 10 μM, 1 μM and 100 nM, forskolin and rolipram 10 μM, 8 hours) is reported as “Significant decreases”. The “luciferase signal with addition of CB1 agonist in different CreLuc lines” value at CB1 (lines 69, 187, 175 and 219, 10 μM with forskolin 5 μM and rolipram 10 μM, four and twenty-four hours) is given as “Decreased signals”.

`COc1ccc(C2CNC(=O)NC2)cc1O[C@H]1C[C@@H]2CC[C@H]1C2` [CP-80,633]: in the test with plasma cAMP, the “plasma cAMP levels” value is “significantly increase”.

For the compound `C=CCN1CCc2c(cc(O)c(O)c2Cl)C(c2ccccc2)C1` (stereo not drawn) [SKF82958], the “induction of luciferase in combination with rolipram compared to rolipram alone” value in test [4] (cortical neurons line 187, 10 μM with 10 μM rolipram) is 2 fold. The “luciferase levels, agonist alone” value in test [4] (cortical neurons line 187, day 3, 10 μM) was “did not significantly increase”.

For the compound “AVE0010: glucagon-like peptide 1 receptor (GLP-1R) agonist”, in test [5] (lines 11, 16 and 90, 0.1 mg/kg, s.c., 4 hours), the “luciferase activity in tissue homogenates of 8 tissues” value is listed as “pancreas-specific induction of luciferase”. In addition, the “bioimaging response of mice before and after treatment” value in test [5] (male line 11, 0.1 mg/kg, sc) was “responsive”. Also, in test [5] (three independent lines, 0.1 mg/kg, sc, imaged after 4 hours), the “transgene activation in the pancreas (bioimaging)” value is recorded as “strong induction”. Also, in test [6], the “non-fasting BG levels” value is recorded as “reduced”.
